{"source": "BindingDB's records for doi:10.1016/j.bmcl.2006.03.040", "about": "(Merck Research Laboratories, 2006)", "key": {"[1]": {"molecular_target": "Kinesin-like protein KIF11 (Homo sapiens, UniProt P52732)", "sequence (P52732 whole entry, looked up, the tested form may be a part)": "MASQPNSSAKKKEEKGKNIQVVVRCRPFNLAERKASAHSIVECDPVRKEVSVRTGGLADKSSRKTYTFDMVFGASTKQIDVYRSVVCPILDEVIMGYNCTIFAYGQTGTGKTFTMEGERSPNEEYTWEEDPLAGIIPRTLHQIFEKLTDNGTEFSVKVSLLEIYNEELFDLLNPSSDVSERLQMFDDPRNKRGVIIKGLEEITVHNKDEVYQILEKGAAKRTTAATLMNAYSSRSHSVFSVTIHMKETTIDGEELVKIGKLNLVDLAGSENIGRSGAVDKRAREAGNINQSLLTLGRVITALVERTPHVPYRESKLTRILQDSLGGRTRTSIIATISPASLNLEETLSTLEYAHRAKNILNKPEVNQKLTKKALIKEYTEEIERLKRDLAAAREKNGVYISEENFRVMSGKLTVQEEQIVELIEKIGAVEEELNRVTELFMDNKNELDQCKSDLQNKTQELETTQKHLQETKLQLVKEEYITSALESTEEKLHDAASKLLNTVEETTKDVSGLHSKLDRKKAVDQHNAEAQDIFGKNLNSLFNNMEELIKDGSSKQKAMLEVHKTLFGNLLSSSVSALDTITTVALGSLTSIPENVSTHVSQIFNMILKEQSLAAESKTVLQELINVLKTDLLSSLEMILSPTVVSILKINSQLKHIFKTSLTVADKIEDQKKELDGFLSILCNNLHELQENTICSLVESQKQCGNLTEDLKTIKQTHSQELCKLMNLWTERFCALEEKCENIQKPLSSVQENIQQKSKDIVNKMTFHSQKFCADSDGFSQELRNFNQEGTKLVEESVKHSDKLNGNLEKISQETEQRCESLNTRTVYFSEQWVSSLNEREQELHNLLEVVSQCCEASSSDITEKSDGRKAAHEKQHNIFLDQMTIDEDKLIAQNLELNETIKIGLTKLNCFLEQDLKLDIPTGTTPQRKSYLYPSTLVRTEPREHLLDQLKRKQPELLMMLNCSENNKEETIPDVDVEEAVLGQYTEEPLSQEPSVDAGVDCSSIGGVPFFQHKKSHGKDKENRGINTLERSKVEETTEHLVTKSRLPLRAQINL", "assay": "Kinesin ATPase In Vitro Assay", "details": "pH 7; 23 °C", "method": "The kinesin motor domain is incubated with microtubules, 1 mM ATP (1: 1 MgCl2 : Na-ATP), and compound at 23°C in buffer. After reaction was terminated, free ph osphate from the ATP hydrolysis reaction is measured via a quinaldine red/ammoni um molybdate assay. The absorbance of the phospho-molybdate complex is […] Human poly-histidine tagged KSP motor domain was cloned, and protein was expressed in E. coli."}, "[2]": {"molecular_target": "Potassium voltage-gated channel subfamily H member 2 (Homo sapiens, UniProt Q12809)", "sequence (Q12809 whole entry)": "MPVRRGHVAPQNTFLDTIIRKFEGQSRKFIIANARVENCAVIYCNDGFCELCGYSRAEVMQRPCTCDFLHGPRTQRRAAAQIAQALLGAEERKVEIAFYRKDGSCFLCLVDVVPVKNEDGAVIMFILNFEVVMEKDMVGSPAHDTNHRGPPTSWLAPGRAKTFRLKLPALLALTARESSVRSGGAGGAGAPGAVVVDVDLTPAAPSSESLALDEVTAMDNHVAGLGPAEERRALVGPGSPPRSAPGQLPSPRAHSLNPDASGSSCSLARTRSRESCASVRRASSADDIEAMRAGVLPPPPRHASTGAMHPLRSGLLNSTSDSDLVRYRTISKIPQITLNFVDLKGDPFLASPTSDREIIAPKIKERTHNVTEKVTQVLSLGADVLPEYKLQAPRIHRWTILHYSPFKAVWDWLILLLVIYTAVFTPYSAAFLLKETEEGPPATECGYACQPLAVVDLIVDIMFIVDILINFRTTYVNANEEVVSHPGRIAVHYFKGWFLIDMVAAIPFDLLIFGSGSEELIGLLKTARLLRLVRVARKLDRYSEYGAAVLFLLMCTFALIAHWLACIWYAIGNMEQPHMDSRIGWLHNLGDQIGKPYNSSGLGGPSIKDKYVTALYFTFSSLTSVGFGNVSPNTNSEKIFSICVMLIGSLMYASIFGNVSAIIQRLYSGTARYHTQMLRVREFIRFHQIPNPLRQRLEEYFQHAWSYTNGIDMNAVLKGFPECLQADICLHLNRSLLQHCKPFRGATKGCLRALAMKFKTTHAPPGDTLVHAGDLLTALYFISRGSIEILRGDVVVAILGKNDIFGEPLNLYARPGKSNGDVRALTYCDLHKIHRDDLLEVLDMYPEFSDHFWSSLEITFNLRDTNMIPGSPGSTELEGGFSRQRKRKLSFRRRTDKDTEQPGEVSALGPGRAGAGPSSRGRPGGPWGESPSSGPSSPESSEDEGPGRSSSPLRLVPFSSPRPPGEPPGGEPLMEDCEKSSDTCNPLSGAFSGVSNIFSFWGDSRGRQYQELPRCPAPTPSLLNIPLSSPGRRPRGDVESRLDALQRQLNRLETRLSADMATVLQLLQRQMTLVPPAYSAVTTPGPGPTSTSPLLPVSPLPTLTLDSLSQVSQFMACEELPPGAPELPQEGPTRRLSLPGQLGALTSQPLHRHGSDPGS", "assay": "hERG Radioligand Competition Assay", "details": "pH 7.4; 22 °C", "method": "The hERG IC50 values were determined by radioligand competition experiments using membrane preparations from human embryonic kidney cells that stably express hERG."}}, "data": [{"molecule": "CNC(=O)N1N=C(c2cc(F)ccc2F)CC1c1ccccc1", "note": "(stereo not drawn)", "values": [{"measurement": "IC50", "setting": "[1]", "value": 3.14, "unit": "µM"}]}, {"molecule": "CC(=O)N1N=C(c2ccccc2Cl)C[C@H]1c1cccc(O)c1", "note": "[1-[(5S)-3-(2-chlorophenyl)-5-(3-hydroxyphenyl)-4,5-dihydro-1H-pyrazol-1-yl]ethan-1-one]", "values": [{"measurement": "IC50", "setting": "[1]", "value": 0.45, "unit": "µM"}]}, {"molecule": "CN(C)C(=O)N1N=C(c2cc(F)ccc2F)C[C@@]1(CCCN)c1ccccc1", "note": "[(5S)-5-(3-aminopropyl)-3-(2,5-difluorophenyl)-N,N-dimethyl-5-phenyl-4,5-dihydro-1H-pyrazole-1-carboxamide]", "values": [{"measurement": "IC50", "setting": "[2]", "value": 19.3, "unit": "µM"}]}]}
